Measurements as given in ChEMBL document CHEMBL1127966, “Acyclic NK1 antagonists: Replacements for the benzhydryl group” (Bioorg Med Chem Lett, 1994).

Columns and labels:
[1] = biological target: Substance-P receptor (Homo sapiens, UniProt P25103); test: Binding affinity of compound was determined from inhibition of [125I]- substance P binding to the hNK1 receptor in CHO cells; assay type: cell-based
[2] = biological target: T1, Substance-K receptor (Homo sapiens) (UniProt P21452); test: Binding affinity to Tachykinin receptor 2
T1 sequence (whole entry): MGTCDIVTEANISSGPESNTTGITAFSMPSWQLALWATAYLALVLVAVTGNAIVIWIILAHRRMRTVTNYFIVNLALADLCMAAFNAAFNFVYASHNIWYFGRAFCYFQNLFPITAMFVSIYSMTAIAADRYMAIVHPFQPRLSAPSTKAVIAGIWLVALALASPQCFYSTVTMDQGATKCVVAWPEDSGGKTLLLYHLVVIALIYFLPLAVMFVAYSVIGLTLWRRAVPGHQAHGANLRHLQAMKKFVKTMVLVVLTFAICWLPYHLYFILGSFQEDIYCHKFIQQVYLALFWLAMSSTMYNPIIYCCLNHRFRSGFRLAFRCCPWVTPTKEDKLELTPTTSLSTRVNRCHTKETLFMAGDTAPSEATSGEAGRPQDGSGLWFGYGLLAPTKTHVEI

[3] = biological target: T2, Neuromedin-K receptor (Homo sapiens) (UniProt P29371); test: Binding affinity to Tachykinin receptor 3
T2 sequence (whole entry): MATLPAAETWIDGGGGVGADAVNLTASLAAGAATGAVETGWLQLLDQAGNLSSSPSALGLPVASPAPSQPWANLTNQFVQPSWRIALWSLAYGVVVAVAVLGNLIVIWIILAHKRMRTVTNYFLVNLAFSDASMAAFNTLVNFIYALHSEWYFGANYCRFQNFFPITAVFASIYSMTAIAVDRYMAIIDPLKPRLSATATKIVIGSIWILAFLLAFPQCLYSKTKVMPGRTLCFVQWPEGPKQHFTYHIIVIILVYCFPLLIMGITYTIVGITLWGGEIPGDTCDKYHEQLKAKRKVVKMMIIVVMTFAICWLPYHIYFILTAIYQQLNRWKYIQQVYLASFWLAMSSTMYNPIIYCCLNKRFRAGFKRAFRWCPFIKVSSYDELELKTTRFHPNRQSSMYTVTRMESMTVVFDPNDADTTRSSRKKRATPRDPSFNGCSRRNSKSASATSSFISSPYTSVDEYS

Substance-P receptor, sequence (P25103 whole entry): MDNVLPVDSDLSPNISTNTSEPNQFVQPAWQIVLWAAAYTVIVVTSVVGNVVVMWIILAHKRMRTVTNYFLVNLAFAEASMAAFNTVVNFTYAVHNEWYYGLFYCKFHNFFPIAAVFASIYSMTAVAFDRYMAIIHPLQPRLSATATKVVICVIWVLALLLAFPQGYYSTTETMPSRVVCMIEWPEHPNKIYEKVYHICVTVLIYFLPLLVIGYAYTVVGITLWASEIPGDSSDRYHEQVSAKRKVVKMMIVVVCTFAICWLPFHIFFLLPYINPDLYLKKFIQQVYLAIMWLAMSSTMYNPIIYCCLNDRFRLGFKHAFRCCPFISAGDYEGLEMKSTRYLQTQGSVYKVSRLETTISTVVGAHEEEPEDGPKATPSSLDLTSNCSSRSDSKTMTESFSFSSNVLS

| IC50 [1] [nM] | Affinity [2] [µM] | Affinity [3] [µM] | SMILES |
| --- | --- | --- | --- |
| 2500 | – | – | Cc1cc(C)cc(COC[C@H](N)c2ccccc2)c1 |
| 93 | – | – | Cc1cc(C)cc(COCC(N)C2c3ccccc3CCc3ccccc32)c1 (centres undefined) |
| 55 | > 10 | > 10 | Cc1cc(C)cc(COC[C@@H](N)c2ccccc2)c1 |
| 9.3 | – | – | Cc1cc(C)cc(COCC(N)C(c2ccccc2)c2ccccc2)c1 (centres undefined) |
| 80 | – | – | Cc1cc(C)cc(COCC(N)C2c3ccccc3C=Cc3ccccc32)c1 (centres undefined) |
| 1160 | – | – | Cc1cc(C)cc(COCC(N)Cc2cccc3ccccc23)c1 (centres undefined) |

| SMILES | IC50 [1] [nM] | Affinity [2] [µM] | Affinity [3] [µM] |
| --- | --- | --- | --- |
| Cc1cc(C)cc(COCC(N)Cc2ccccc2)c1 (centres undefined) | 483 | – | – |
